The test system of the assay is mouse myoblast strain C2C12 (myotube cells). Description: Myotube area and maximum transverse diameter of C2C12 myotube cells (anti-MHC immunostaining, imaging analysis). Type of assay: cell-based. The settings on record: for Maximum transverse diameter/myotube cell (%) Average value / Myotube area/field of view (%) Average value: two days, untreated control = 100%. As for the experimental part: Cells of mouse myoblast strain C2C12 (ATCC catalog no. CRL-1772)
Proliferation culture medium: DMEM (high glucose) to which 10% FBS and 1% PS are added
Differentiation culture medium: DMEM (high glucose) to which 2% HS and 1% PS are added
The fatty acids indicated below were added to the culture medium so as to reach a concentration of 0.05 mM, 0.2 mM, or 0.5 mM. As a positive control, insulin-like growth factor (IGF-1) (made by Sigma-Aldrich Co., LLC), which is a factor for promoting formation of myotube cells, was added to the culture medium so as to reach a concentration of 10 ng/mL.
The fatty acids were dissolved in dimethyl sulfoxide (DMSO) (made by Nacalai Tesque Inc.) to formulate solutions having a concentration of 0.05 M, 0.2 M, 0.5 M, or 1 M, and the solutions were added in 1/1000 amounts to the culture medium to reach a target final concentration of 0.05 mM, 0.2 mM, 0.5 mM, or 1 mM. The IGF-1 serving as a positive control was formulated to a concentration of 10 μg/mL using 0.1 N HCl, and the resultant solution was added in a 1/1000 amount to the culture medium to reach a target final concentration of 10 ng/mL.
The C2C12 cells were recovered in a T75 flask using the proliferation culture medium and cultured using a CO2 incubator (37° C., 5% CO2, moist; same applies below). The culture medium was replaced at intervals of one to two days. The cells were peeled away (3 to 5 minutes) using 0.25% trypsin-EDTA (made by Nacalai Tesque Inc.) (1 mL) at the point in time when 80% confluence was reached, and 5 mL of culture medium was added, after which the components were centrifuged (180×g, 5 minutes, room temperature). A supernatant was removed, and cell pellets were suspended in fresh culture medium and sown in a 96-well black plate at a rate of 10,000 cells/0.1 mL/well. The next day, the culture medium was replaced with the differentiation culture medium, and culturing was carried out for two days to induce differentiation into myotube cells. The culture medium was then replaced with differentiation culture medium (100 μL) to which the substance under test was added, and culturing was carried out for a further two days.
After treatment with the substance under test, the wells were refilled with 100 μL of a fixing solution (4% PFA: paraformaldehyde (made by Nacalai Tesque Inc.)), incubated for 15 minutes at 4° C., and then washed three times using Dulbecco's Phosphate-Buffered Saline (DPBS) (made by Thermo Fisher Scientific Inc.). 100 μL of a blocking/membrane permeation liquid solution (0.3% TritonX/3% BSA/DPBS) was added, and the components were incubated for 30 minutes at room temperature. The aforementioned solution replaced with a primary antibody solution (primary antibody reagent (diluted by a factor of 300)/3% BSA/DPBS) and then incubated overnight at 4° C. The primary antibody solution was removed, and the wells were washed three times using a blocking solution (3% BSA/DPBS) before being refilled with a secondary antibody solution (secondary antibody reagent (diluted by a factor of 500)/0.1% nucleus-staining reagent/3% BSA/DPBS) and incubated for two hours at room temperature. Finally, the wells were washed three times using DPBS and refilled with new DPBS before imaging analysis was carried out.
An automatic cell image system (“Operetta CLS,” made by PerkinElmer Inc.) was used in the imaging analysis of the immunostained cells. Nine fields of view of central sections of the wells were imaged using a 10× objective lens, and then fluorescent regions marked by the anti-MHC antibodies and cell nucleus regions marked by the nucleus-staining reagent were detected using image analysis software (Harmony 4.6) included with the system. […]

[1] abbreviates: Table 1 data, 0.5 mM, vs comparative example 1-1, Dunnett's test, 5%.
The mark [2] stands for this setting: Table 2 data, 0.2 mM, vs comparative example 2-1.
The mark [3] stands for this setting: Table 2 data, 0.5 mM, vs comparative example 2-1.
The mark [4] stands for this setting: Table 3 data, 0.5 mM, vs comparative example 3-1.

For `CCCCCCCCCCCCCCCCC(=O)O` [Heptadecanoic acid (C17:0), Heptadecanoic acid, reference compound], for the setting “Table 1, 0.5 mM, n=5”, the “Maximum transverse diameter/myotube cell (%) Average value” was 98.4% and the “Myotube area/field of view (%) Average value” turned out to be 82.8%. For the same compound, the “area of the myotube cells within the fields of view, change versus control (in words)” value (“area … change versus control (in words)” for short) under setting [1] is given as “significantly decreased”.

In the case of `CCCCCCCCCCCCCCCC(=O)O` [Hexadecanoic acid (C16:0), Hexadecanoic acid, reference compound], the “Maximum transverse diameter/myotube cell (%) Average value” was 98.7% (Table 4, 0.05 mM) and 104.9% (Table 4, 0.5 mM). The “Myotube area/field of view (%) Average value” came to 91.4% (Table 4, 0.05 mM) and 80.9% (Table 4, 0.5 mM). Further, the “per-cell maximum transverse diameter of the myotube cells, effect (in words)” value was “no effect” (Table 4 data, 0.05 mM) and “no effect” (Table 4 data, 0.5 mM). Besides, the “area … change versus control (in words)” value (Table 4 data, 0.5 mM, vs comparative example 4-1) was “significantly decreased”.

On to `CCCCCCCCCCCCCCC(=O)O` [Pentadecanoic acid (C15:0), Pentadecanoic acid], for which the “Maximum transverse diameter/myotube cell (%) Average value” (Table 1, 0.5 mM, n=5) is recorded as 132.2%; the “Maximum transverse diameter/myotube cell (%) Average value” (Table 2, 0.05 mM) is listed as 103.0%; the “Maximum transverse diameter/myotube cell (%) Average value” (Table 2, 0.2 mM) was 109.3%; the “Maximum transverse diameter/myotube cell (%) Average value” (Table 2, 0.5 mM) is listed as 111.4%. The “Myotube area/field of view (%) Average value” by setting is: (Table 1, 0.5 mM, n=5) 116.0%; (Table 2, 0.05 mM) 108.0%; (Table 2, 0.2 mM) 119.3%; (Table 2, 0.5 mM) 118.7%. Besides, the “area … change versus control (in words)” value is “significantly increased” under setting [1], “significantly increased” under setting [2] and “significantly increased” under setting [3]. The “per-cell maximum transverse diameter of the myotube cells, change versus control (in words)” value is, setting by setting: under setting [1], “significantly increased”; (Table 2 data, 0.05 mM, vs comparative example 2-1) “significantly increased”; under setting [2], “significantly increased”; under setting [3], “significantly increased”.

`CCCCCCCCCCCCCC(=O)O` [Tetradecanoic acid (C14:0), Tetradecanoic acid]: under “Table 3, 0.5 mM”, the “Maximum transverse diameter/myotube cell (%) Average value” was 108.6% and the “Myotube area/field of view (%) Average value” was determined as 114.7%. Further, under “Table 3, 1 mM”, the “Maximum transverse diameter/myotube cell (%) Average value” was 124.4% and the “Myotube area/field of view (%) Average value” is 107.3%. Also, under setting [4], the “area … change versus control (in words)” value was “significantly increased” and the “per-cell maximum transverse diameter of the myotube cells, change versus control (in words)” value was “significantly increased”. For the same compound, the “per-cell maximum transverse diameter of the myotube cells, change versus control (in words)” value (Table 3 data, 1.0 mM, vs comparative example 3-1) is “significantly increased”.

On to `CCCCCCCCCCCCC(=O)O` [Tridecanoic acid (C13:0), Tridecanoic acid], for which, under “Table 1, 0.5 mM, n=5”, the “Maximum transverse diameter/myotube cell (%) Average value” is listed as 124.1% and the “Myotube area/field of view (%) Average value” came out at 98.1%. Under setting [1], the “per-cell maximum transverse diameter of the myotube cells, change versus control (in words)” value is given as “significantly increased”.

Turning to `CCCCCCCCCCC(=O)O` [Undecanoic acid (C11:0), Undecanoic acid, reference compound], for the setting “Table 1, 0.5 mM, n=5”, the “Maximum transverse diameter/myotube cell (%) Average value” amounted to 103.1% and the “Myotube area/field of view (%) Average value” is 103.4%. Moreover, the “effect on the myotube cells (in words)” value (Table 1 data, 0.5 mM) is given as “no effect”.

As to “IGF-1: insulin-like growth factor (IGF-1), a factor for promoting formation of myotube cells; positive control at 10 ng/mL”, the “Maximum transverse diameter/myotube cell (%) Average value” was found to be 101.8% (Table 1, 10 ng/mL); 99.1% (Table 2, 10 ng/mL); 100.4% (Table 3, 10 ng/mL); 104.8% (Table 4, 10 ng/mL). Further, the “Myotube area/field of view (%) Average value” came out at 114.1% (Table 1, 10 ng/mL); 126.8% (Table 2, 10 ng/mL); 120.5% (Table 3, 10 ng/mL); 132.8% (Table 4, 10 ng/mL).

Values taken from US20240115534A1, “COMPOSITION FOR MUSCLE ENHANCEMENT AND USE OF SAME” (J-OIL MILLS, INC., priority 2021, published 2024).
